Measurements published in patent US5817651A, “3-arylcarbonyl-1-(C-attached-N-heteryl)-1H-indoles” (Sanofi, priority 1997, dated 1998).
Counter-ions that a name gives are not always drawn. Like-named read-outs stand apart in the source and are kept apart here.

Assays:
Format in all cases: in vivo
[1] = system: acetylcholine-induced abdominal constriction; test: acetylcholine-induced abdominal constriction test (ACH); settings: mice; for ED50 / inhibition in vivo at 100 mg/kg: Mus musculus; for inhibition in vivo at 100 mg/kg: dose level 100, read-out: ACH percent inhibition at dose 100
From the text: J. Pharmacol. Chemotherap. 32, 295 (1968); a modification of the anti-bradykinin test, which is also a primary analgesic screening procedure, described by Berkowitz et al., J. Pharmacol. Exptl. Therap. 177, 500-508 (1971), Blane et al., J. Pharm. Pharmacol. 19, 367-373 (1967), Botha et al., Eur. J. Pharmacol. 6, 312-321 (1969) and Deffenu et al., J. Pharm. Pharmacol. 18, 135 (1966); and the Randall-Selitto analgesic test described by Randall and Selitto, Arch. Int. Pharmacodyn., 111, 409-419 (1957).
Data in the developing adjuvant arthritis (AA) and plasma fibronectin (FN) assays are expressed as percent inhibition, i.e. inhibition of non-injected paw inflammation (NIP) and injected paw (RPV) and lowering of plasma fibronectin, the asterisks * and ** indicating statistical significance at the p<0.01 and p<0.05 levels, respectively. […] Non-statistically significant results are recorded as "------ ". In the acetylcholine-induced abdominal constriction test, the test compounds were administered either as suspensions in gum tragacanth (GT) or as aqueous solutions prepared by addition of just sufficient dilute aqueous methanesulfonic acid (MS) or dilute aqueous lactic acid (LA) to dissolve the compound. The compounds are identified by the example number above where their preparations are described. All data in the anti-bradykinin, rat writhing and Randall-Selitto tests were obtained on oral administration.

[2] = system: acetic acid-induced writhing; test: acetic acid-induced writhing assay in the rat (RW); settings: Rattus norvegicus, po, oral administration
Procedure: (§1) Data in the developing adjuvant arthritis (AA) and plasma fibronectin (FN) assays are expressed as percent inhibition, i.e. inhibition of non-injected paw inflammation (NIP) and injected paw (RPV) and lowering of plasma fibronectin, the asterisks * and ** indicating statistical significance at the p<0.01 and p<0.05 levels, respectively. Compounds are considered active at p<0.05 level. Non-statistically significant results are recorded as "------ ". In the acetylcholine-induced abdominal constriction test, the test compounds were administered either as suspensions in gum tragacanth (GT) or as aqueous solutions prepared by addition of just sufficient dilute aqueous methanesulfonic acid (MS) or dilute aqueous lactic acid (LA) to dissolve the compound. The compounds are identified by the example number above where their preparations are described. All data in the anti-bradykinin, rat writhing and Randall-Selitto tests were obtained on oral administration.

[3] = system: adjuvant induced arthritis; test: developing adjuvant arthritis (AA) assay; design: key: Non-statistically significant results are recorded as "------ "; settings: arthritic rats; printed * = p<0.01, ** = p<0.05
Procedure: Antirheumatic and anti-inflammatory activities of the compounds of the invention were determined using the developing adjuvant arthritis assay in rats and the plasma fibronectin assay in arthritic rats. The developing adjuvant arthritis assay was used in conjunction with the plasma fibronectin assay as a primary screening method in the evaluation of compounds for potential use as disease modifying anti-rheumatic drugs. The procedure used to induce arthritis in rats is a modification of the methods published by Pearson, J. Chron. Dis. 16, 863-874 (1973) and by Glenn et al., Amer. J. Vet. Res. 1180-1193 (1965). Adjuvant induced arthritis bears many of the traits of rheumatoid arthritis. It is a chronic, progressive, deforming arthritis of the peripheral joints, with a primary mononuclear cell response consisting of bone and joint space invasion by pannus. In order to detect disease modifying anti-rheumatic drug activity, drug treatment is started before the disease has become irrevocably established. Since such drugs are not designed to be administered prophylactically, drug treatment of adjuvant arthritis is initiated at a time when the disease is developing but is not yet irreversible. Animals develop significant systemic arthritic disease which can be measured by swelling of the non-injected rear paw (NIP) 15 to 20 days following an initial injection on day 1 of complete Freund's adjuvant into the right hindfoot paw.
as §1

[4] = Table 9, Examples, no route marked in the cell, read-out: ACH ED50

SMILES: COc1ccc(C(=O)c2c(C)n(CC3COCCN3C)c3ccccc23)cc1 (stereo not shown) [Example 10B, 2-methyl-3-(4-methoxybenzoyl)-1-[(4-methyl-3-morpholinyl)methyl]-1H-indole]
- ED50 [1, 4]: 29 mg/kg

SMILES: Cc1c(C(=O)c2ccccc2F)c2ccccc2n1CC1CCCN(C)C1 (stereo not shown) [Example 1J]
- ED50 [1, 4]: 32 mg/kg
- ED50 [2]: 45 mg/kg

SMILES: COc1cccc(C(=O)c2c(C)n(CC3CCCN(C)C3)c3ccccc23)c1 (stereo not shown) [Example 1T]
- ED50 [1, 4]: 64 mg/kg

SMILES: COc1ccc(C(=O)c2c(C)n(C3CCCN(C)C3)c3ccccc23)cc1 (stereo not shown) [2AG(a)]
- ACH ED50 ([1]; Table 9, Examples, no route marked in the cell, listed as 2AG(d)): 22 mg/kg
- ED50 [2]: 9 mg/kg

SMILES: Cc1c(C(=O)c2ccc([N+](=O)[O-])cc2)c2ccccc2n1CC1CCCN(C)C1 (stereo not shown) [Example 2AN]
- inhibition in vivo at 100 mg/kg ([1]; Table 9): 30%

SMILES: CN1CCCC(Cn2ccc3cc(F)ccc32)C1 (stereo not shown) [Preparation 1D, 1-[(1-methyl-3-piperidinyl)methyl]-5-fluoro-1H-indole]
- ED50 ([1]; Table 10, Prepn. No. (intermediates of formula II), no route marked, read-out: ACH ED50): 65 mg/kg

SMILES: CN1CCCC(Cn2cc(C(=O)c3ccccc3F)c3ccccc32)C1 (stereo not shown) [Example 2AA]
- ED50 [1, 4]: 65 mg/kg

SMILES: CN1CCCCC(n2cc(C(=O)c3cccc4ccccc34)c3ccccc32)C1 (stereo not shown) [Example 1R]
- inhibition in vivo at 100 mg/kg ([1]; Table 9): 20%

SMILES: CCc1ccc(C(=O)c2c(C)n(CC3CCCN(C)C3)c3ccccc23)cc1 (stereo not shown) [Example 2N]
- ED50 [1, 4]: 46 mg/kg

SMILES: CC(C1CCCNC1)n1cc(C(=O)c2ccccc2F)c2ccccc21 (stereo not shown) [Example 4E]
- ED50 [1, 4]: 43 mg/kg

SMILES: COc1ccc(C(=O)c2c(C)n(C3CSCCN(C)C3)c3ccccc23)cc1 (stereo not shown) [Example 3B]
- inhibition in vivo at 100 mg/kg ([1]; Table 9): 60%

SMILES: Cc1c(C(=O)c2cccc(F)c2)c2ccccc2n1CC1CCCN(C)C1 (stereo not shown) [Example 1O]
- ED50 [1, 4]: 71 mg/kg

SMILES: Cc1cc2ccccc2n1CC1CN(C)CCO1 (racemic) [Preparation 1A, 1-[(4-methyl-2-morpholinyl)methyl]-2-methyl-1H-indole]
- inhibition in vivo at 100 mg/kg ([1]; Table 10, Prepn. No.): 10%

SMILES: COc1ccc(C(=O)c2cn(CCC3CCCN3C)c3ccccc23)cc1 (stereo not shown) [Example 2S]
- ED50 [1, 4]: 50 mg/kg
- NIP: percent inhibition of non-injected paw inflammation [3]: 33%
- RPV: percent inhibition of injected paw [3]: 21%

SMILES: COc1ccc(C(=O)c2c(C)n(CC3CCCN(Cc4ccccc4)C3)c3ccccc23)cc1 (stereo not shown) [Example 2T]
- ACH percent inhibition at dose 300 ([1]; Table 9, dose level 300): 20%
- NIP: percent inhibition of non-injected paw inflammation [3]: 92%
- RPV: percent inhibition of injected paw [3]: 68%

SMILES: COc1ccc(C(=O)c2c(C)n(CC3CN(C(c4ccccc4)c4ccccc4)C3)c3ccccc23)cc1 [Example 2AL]
- inhibition in vivo at 100 mg/kg ([1]; Table 9): 20%

SMILES: COc1ccc(C(=O)c2c(C)n(CC3CSCCN3C)c3ccccc23)cc1 (stereo not shown) [Example 3A, 1-[(4-methyl-3-thiomorpholinyl)methyl]-2-methyl-3-(4-methoxybenzoyl)-1H-indole]
- ED50 [1, 4]: 33 mg/kg
- ED50 [2]: 13 mg/kg

SMILES: COc1ccc(C(=O)c2c(C)n(C3CCCN(C)C3)c3ccccc23)cc1 (stereo not shown) [2AG(b)]
- ED50 [1, 4]: 30 mg/kg

SMILES: COc1ccc(C(=O)c2c(C)n(CCC3CCCN3C)c3ccc(F)cc23)cc1 (stereo not shown) [Example 2A, 5-fluoro-2-methyl-1-[2-(1-methyl-2-pyrrolidinyl)ethyl]-3-(4-methoxybenzoyl)-1H-indole hydrochloride hemihydrate]
- ED50 [1, 4]: 32 mg/kg
- NIP: percent inhibition of non-injected paw inflammation [3]: 86%
- RPV: percent inhibition of injected paw [3]: 69%

SMILES: CN1CCCC(Cn2cc(C(=O)c3ccccc3)c3ccccc32)C1 (stereo not shown) [Example 1Q]
- ED50 [1, 4]: 45 mg/kg

SMILES: COc1ccc(C(=O)c2c(C)n(CC3CNCCN3)c3ccccc23)cc1 (stereo not shown) [Example 4C]
- ED50 [1, 4]: 22 mg/kg
- ED50 [2]: 20 mg/kg

SMILES: COc1ccc(C(=O)c2cn(CCC3CCCN3C)c3ccc(F)cc23)cc1 (stereo not shown) [Example 2C]
- ED50 [1, 4]: 49 mg/kg
- NIP: percent inhibition of non-injected paw inflammation [3]: 55%
- RPV: percent inhibition of injected paw [3]: 27%

SMILES: COc1ccc(C(=O)c2c(C)n(C3CCN(Cc4ccccc4)C3)c3ccccc23)cc1 (stereo not shown) [Example 1W]
- inhibition in vivo at 100 mg/kg ([1]; Table 9): 35%

SMILES: COc1ccc(C(=O)c2c(C)n(C3CCNC3)c3ccccc23)cc1 (stereo not shown) [Example 8B]
- ED50 [1, 4]: 29 mg/kg

SMILES: COc1ccc(C(=O)c2c(C)n(CC3C[S+]([O-])CCN3C)c3ccccc23)cc1 (stereo not shown) [Example 6B, 2-methyl-3-(4-methoxybenzoyl)-1-[(4-methyl-3-thiomorpholinyl)methyl]-1H-indole-S-oxide]
- ED50 [1, 4]: 5 mg/kg

SMILES: Cc1c(C(=O)c2ccccc2F)c2ccccc2n1C[C@@H]1CC[C@@H](C)N1C (relative stereo) [Example 1AD]
- ED50 [1, 4]: 34 mg/kg

SMILES: Cc1cc2ccccc2n1CCC1CCCCN1C (stereo not shown) [Preparation 1Q, 2-methyl-1-[2-(1-methyl-2-piperidinyl)-ethyl]-1H-indole]
- inhibition in vivo at 100 mg/kg ([1]; Table 10, Prepn. No.): 30%

SMILES: CN1CCCC(n2cc(C(=O)c3ccccc3F)c3ccccc32)C1 (stereo not shown) [Example 4D]
- ACH percent inhibition at dose 10 ([1]; Table 9, dose level 10): 65%
- ACH percent inhibition at dose 30 ([1]; Table 9, dose level 30): 50%
- NIP: percent inhibition of non-injected paw inflammation [3]: 80%
- RPV: percent inhibition of injected paw [3]: --

SMILES: CN1CCCCC(n2cc(C(=O)c3ccccc3F)c3ccccc32)C1 (stereo not shown) [Example 2AD]
- inhibition in vivo at 100 mg/kg ([1]; Table 9): 20%

SMILES: COc1ccc(C(=O)c2c(C)n(CC3CN(C)CCS3)c3ccccc23)cc1 (stereo not shown) [Example 3C]
- ED50 [1, 4]: 30 mg/kg

SMILES: Cc1c(C(=O)c2ccc(Cl)cc2)c2ccccc2n1CC1CCCN(C)C1 (stereo not shown) [Example 1L]
- ED50 [1, 4]: 62 mg/kg
- NIP: percent inhibition of non-injected paw inflammation [3]: 83%
- RPV: percent inhibition of injected paw [3]: 60%

SMILES: Cc1c(C(=O)c2ccc(O)cc2)c2ccccc2n1CC1CN(C)CCO1 (stereo not shown) [Example 1D]
- inhibition in vivo at 100 mg/kg ([1]; Table 9): 10%

SMILES: COc1ccc(C(=O)c2c(C)n(C3CCN(C)CC3)c3ccccc23)cc1 [Example 1B]
- ED50 [1, 4]: 69 mg/kg
- NIP: percent inhibition of non-injected paw inflammation [3]: 88%
- RPV: percent inhibition of injected paw [3]: 65%

SMILES: COc1ccc(C(=O)c2c(C)n(C[C@@H]3CC[C@@H](C)N3Cc3ccccc3)c3ccccc23)cc1 (relative stereo) [Example 1AE]
- inhibition in vivo at 100 mg/kg ([1]; Table 9): 30%

SMILES: COc1ccc(C(=O)c2c(C)n(CC3CCCN3Cc3ccccc3)c3ccccc23)cc1 (stereo not shown) [Example 1AG]
- inhibition in vivo at 100 mg/kg ([1]; Table 9): 0%

SMILES: COc1ccc(C(=O)c2c(C(C)C)n(CC3CCCN(C)C3)c3ccccc23)cc1 (stereo not shown) [Example 1U]
- ED50 [1, 4]: 22 mg/kg

SMILES: CCN1CCCC1Cn1c(C)c(C(=O)c2ccc(OC)cc2)c2ccccc21 (stereo not shown) [Example 2Y]
- ED50 [1, 4]: 43 mg/kg
- NIP: percent inhibition of non-injected paw inflammation [3]: 46%
- RPV: percent inhibition of injected paw [3]: 15%

SMILES: COc1ccc(C(=O)c2c(C(C)C)n(CC3CCCN(C)C3)c3ccc(F)cc23)cc1 (stereo not shown) [Example 1S]
- ED50 [1, 4]: 21 mg/kg
- NIP: percent inhibition of non-injected paw inflammation [3]: 73%
- RPV: percent inhibition of injected paw [3]: 36%

SMILES: Cc1cc2ccccc2n1CC1CCCN(C)C1.Cl (stereo not shown) [Preparation 1P, 2-methyl-1-[(1-methyl-3-piperidinyl)methyl]-1H-indole hydrochloride]
- ED50 ([1]; iv, Table 10, Prepn. No., i.v., read-out: ACH ED50 (i.v.)): 9.7 mg/kg
- ED50 ([1]; po, Table 10, Prepn. No., p.o., read-out: ACH ED50 (p.o.)): 66 mg/kg

SMILES: CCCN1CCCC(Cn2c(C)c(C(=O)c3ccc(OC)cc3)c3ccccc32)C1 (stereo not shown) [Example 7, 2-methyl-3-(4-methoxybenzoyl)-1-[(1-propyl-3-piperidinyl)methyl]-1H-indolehydrochloride]
- ED50 [1, 4]: 18 mg/kg

SMILES: COc1ccc(C(=O)c2cn(CC3CCCN(C)C3)c3ccc(F)cc23)cc1 (stereo not shown) [Example 1H]
- inhibition in vivo at 100 mg/kg ([1]; Table 9): 20%
- NIP: percent inhibition of non-injected paw inflammation [3]: 92%
- RPV: percent inhibition of injected paw [3]: 63%
